In the Kinase Knowledgebase extract (Sharma et al. 2016):

Biological target: MAPK14 (human) (UniProt Q16539)
Assay: Inhibtion of MAPK14 Kinase Activity

Chain of MAPK14 (human) (Q16539 whole entry, looked up): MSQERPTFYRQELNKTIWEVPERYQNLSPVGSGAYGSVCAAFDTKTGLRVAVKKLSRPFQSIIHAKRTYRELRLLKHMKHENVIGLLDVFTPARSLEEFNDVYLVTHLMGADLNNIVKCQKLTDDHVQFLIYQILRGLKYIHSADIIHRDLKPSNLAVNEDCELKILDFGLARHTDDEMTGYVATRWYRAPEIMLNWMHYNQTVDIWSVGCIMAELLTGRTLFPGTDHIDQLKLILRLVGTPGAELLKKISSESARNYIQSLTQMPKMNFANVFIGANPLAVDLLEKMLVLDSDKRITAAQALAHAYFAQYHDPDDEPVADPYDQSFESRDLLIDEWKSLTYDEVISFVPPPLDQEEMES

IC50	Compound
< 100 nM	CC(C)C[C@H](NCCCCCOc1cc(F)c(-n2c(N)c(C(=O)c3ccc(F)cc3F)ccc2=O)c(F)c1)C(=O)OC1CCCC1
< 100 nM	Cc1cc(C(=O)c2ccc(=O)n(-c3c(F)cc(OCCCN[C@@H](Cc4ccccc4)C(=O)OC4CCCC4)cc3F)c2N)ccc1F
< 100 nM	Cc1cc(C(=O)c2ccc(=O)n(-c3c(F)cc(OCCCN[C@@H](CC(C)C)C(=O)O)cc3F)c2N)ccc1F
< 100 nM	Nc1c(C(=O)c2ccc(F)cc2F)ccc(=O)n1-c1ccc(OCCCN[C@H](C(=O)O)c2ccccc2)cc1
< 100 nM	Nc1c(C(=O)c2ccc(F)cc2)ccc(=O)n1-c1c(F)cc(OCCCN[C@@H](Cc2ccccc2)C(=O)OC2CCCC2)cc1F
< 100 nM	CC(C)(C)OC(=O)[C@@H](NCCCOc1cc(F)c(-n2c(N)c(C(=O)c3ccc(F)cc3F)ccc2=O)c(F)c1)C1CCCCC1
< 100 nM	Nc1c(C(=O)c2ccc(F)cc2F)ccc(=O)n1-c1ccc(OCCCN[C@@H](Cc2ccccc2)C(=O)OC2CCCC2)cc1
< 100 nM	Nc1c(C(=O)c2ccc(F)cc2F)ccc(=O)n1-c1c(F)cc(OCCCN[C@H](C(=O)O)c2ccccc2)cc1F
< 100 nM	CC(C)C[C@H](NC1CCC(Oc2cc(F)c(-n3c(N)c(C(=O)c4ccc(F)cc4)ccc3=O)c(F)c2)CC1)C(=O)OC1CCCC1 (some centres undefined)
< 100 nM	Nc1c(C(=O)c2ccc(F)cc2)ccc(=O)n1-c1c(F)cc(OC2CCC(N[C@H](C(=O)O)c3ccccc3)CC2)cc1F (some centres undefined)
< 100 nM	Cc1cc(C(=O)c2ccc(=O)n(-c3ccc(OCCCN[C@@H](Cc4ccccc4)C(=O)OC4CCCC4)cc3)c2N)ccc1F
< 100 nM	CC(C)(C)OC(=O)[C@H](Cc1ccccc1)NCCCOc1cc(F)c(-n2c(N)c(C(=O)c3ccc(F)cc3F)ccc2=O)c(F)c1
< 100 nM	CC(C)C[C@H](NCc1cc(F)c(-n2c(N)c(C(=O)c3ccc(F)cc3F)ccc2=O)c(F)c1)C(=O)OC1CCCC1
< 100 nM	CC(C)C[C@@H](NCCCOc1cc(F)c(-n2c(N)c(C(=O)c3ccc(F)cc3F)ccc2=O)c(F)c1)C(=O)OC1CCCC1
< 100 nM	Nc1c(C(=O)c2ccc(F)cc2F)ccc(=O)n1-c1c(F)cc(OCCCN[C@H](C(=O)OC2CCCC2)c2ccccc2)cc1F
< 100 nM	CC(C)C[C@H](NCCCOc1ccc(-n2c(N)c(C(=O)c3ccc(F)cc3F)ccc2=O)cc1)C(=O)O
< 100 nM	Nc1c(C(=O)c2ccc(F)cc2F)ccc(=O)n1-c1c(F)cc(OCCCN[C@H](C(=O)OC2Cc3ccccc3C2)c2ccccc2)cc1F
< 100 nM	CC(C)C[C@H](NC1CCC(Oc2cc(F)c(-n3c(N)c(C(=O)c4ccc(F)cc4)ccc3=O)c(F)c2)CC1)C(=O)O (some centres undefined)
< 100 nM	Nc1c(C(=O)c2ccc(F)cc2)ccc(=O)n1-c1c(F)cc(CN[C@@H](Cc2ccccc2)C(=O)OC2CCCC2)cc1F
< 100 nM	CC(C)(C)OC(=O)[C@@H](NCCCOc1cc(F)c(-n2c(N)c(C(=O)c3ccc(F)cc3)ccc2=O)c(F)c1)c1ccccc1
< 100 nM	Cc1cc(C(=O)c2ccc(=O)n(-c3c(F)cc(OCCCN[C@H](C(=O)O)c4ccccc4)cc3F)c2N)ccc1F
< 100 nM	CC(C)C[C@H](NCCc1ccc(-n2c(N)c(C(=O)c3ccc(F)cc3F)ccc2=O)cc1)C(=O)O
< 100 nM	Nc1c(C(=O)c2ccc(F)cc2)ccc(=O)n1-c1c(F)cc(OC2CCC(N[C@@H](Cc3ccccc3)C(=O)O)CC2)cc1F (some centres undefined)
< 100 nM	Nc1c(C(=O)c2ccc(F)cc2F)ccc(=O)n1-c1ccc(CN[C@H](C(=O)OC2CCCC2)c2ccccc2)cc1
< 100 nM	CC(C)C[C@H](NCCCCCOc1cc(F)c(-n2c(N)c(C(=O)c3ccc(F)cc3F)ccc2=O)c(F)c1)C(=O)OC(C)(C)C
< 100 nM	Nc1c(C(=O)c2ccc(F)cc2)ccc(=O)n1-c1ccc(OCCCN[C@H](C(=O)O)c2ccccc2)cc1
< 100 nM	CC(C)C[C@H](NCCCOc1cc(F)c(-n2c(N)c(C(=O)c3ccc(F)cc3F)ccc2=O)c(F)c1)C(=O)O
< 100 nM	CC(C)C[C@@H](NCCCOc1cc(F)c(-n2c(N)c(C(=O)c3ccc(F)cc3F)ccc2=O)c(F)c1)C(=O)OC(C)(C)C
< 100 nM	Cc1cc(C(=O)c2ccc(=O)n(-c3c(F)cc(OCCCN[C@@H](CC(C)C)C(=O)OC4CCCC4)cc3F)c2N)ccc1F
